The results in this text go back to PubChem BioAssay (NCI).

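These data come from cells grown in 96-well plates and exposed to compound for 48 hours at five concentrations. GI50: concentration for 50% inhibition of growth. TGI: concentration producing complete growth inhibition.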 A value given as a limit tells only on which side of the number the result lay.

Some test systems named below: DLD-1 colon; DMS 273 small cell lung; HOP-18 NSCLC; KM20L2 colon; LXFL 529 NSCLC; SNB-78 CNS; DMS 114 small cell lung; P388 leukemia; P388/ADR leukemia; SN12K1 renal; XF 498 CNS.
What all share (assay): NCI tumour cell line growth inhibition, 48 h

As to `COc1ccc(N2C(=O)C(N3C(=O)C=CC3=O)C2C=O)cc1` (configuration not stated), the TGI with DLD-1 colon, in the test with DMS 273 small cell lung, in the test on HOP-18 NSCLC, with KM20L2 colon, in the test with LXFL 529 NSCLC and in the test on SNB-78 CNS was > 100 µM throughout.
On to `COc1cccc2c1[C@]1(O)C(O)CCCC21` (some centres not stated), for which the TGI in the test on DLD-1 colon, with DMS 114 small cell lung, in the test with DMS 273 small cell lung, in the test on HOP-18 NSCLC, in the test with KM20L2 colon and with LXFL 529 NSCLC was > 100 µM each time. Besides, the TGI in the test with SNB-78 CNS is > 100 µM.
Take `CCOC(=O)C[n+]1ccc2c([nH]c3cc(OC)ccc32)c1C`: the TGI in the test on DLD-1 colon, in the test with DMS 114 small cell lung, in the test with DMS 273 small cell lung, in the test with HOP-18 NSCLC, in the test on KM20L2 colon and in the test on P388 leukemia was > 100 µM in each case. The TGI with P388/ADR leukemia, with SN12K1 renal, with SNB-78 CNS and in the test with XF 498 CNS was > 100 µM in each case.
Take `CC1OC=CC(=O)C1O` (configuration not stated): the TGI in the test with DLD-1 colon, in the test with KM20L2 colon, in the test with LXFL 529 NSCLC, in the test with SNB-78 CNS and in the test with XF 498 CNS was > 100 µM throughout.
With `c1ccc(-c2[nH]c(-c3ccccc3)c(-c3cnccn3)c2-c2cnccn2)cc1`, the TGI in the test with DLD-1 colon, in the test on DMS 114 small cell lung, with DMS 273 small cell lung, with HOP-18 NSCLC, in the test on KM20L2 colon and in the test with SNB-78 CNS was > 100 µM throughout. The TGI in the test with XF 498 CNS is > 100 µM.
As to `O=C1OC2C=CC1C1(CCOC1=O)C2` (configuration not stated), the TGI in the test with DLD-1 colon, with DMS 114 small cell lung, with DMS 273 small cell lung, in the test with HOP-18 NSCLC, in the test with KM20L2 colon and in the test on LXFL 529 NSCLC was > 100 µM each time. For the same molecule, the TGI in the test on XF 498 CNS is > 100 µM.
On to `CC1(C)N=C(N)N=C(N)N1c1ccc(OCCCOc2ccccc2)c(Cl)c1`, for which the TGI in the test with DLD-1 colon was > 100 µM; in the test on DMS 114 small cell lung it was 14.3 µM; in the test with DMS 273 small cell lung, 1.15 µM; in the test on HOP-18 NSCLC it was 17.6 µM; in the test on KM20L2 colon, 11.3 µM; in the test with P388 leukemia, 10.3 µM. Besides, the TGI in the test on P388/ADR leukemia is > 100 µM; with SN12K1 renal, 11.2 µM; in the test with SNB-78 CNS, 18 µM.
As to `CC(=O)[C@H]1CCC2[C@@H]3CC=C4C(O)C(OS(=O)(=O)O)CC[C@]4(C)C3CC[C@@]21C` (some centres not stated), the TGI with DLD-1 colon, with DMS 114 small cell lung, in the test with DMS 273 small cell lung, in the test on HOP-18 NSCLC, in the test on KM20L2 colon and in the test with P388 leukemia was > 100 µM each time. Besides, the TGI with P388/ADR leukemia, in the test with SN12K1 renal and in the test on SNB-78 CNS was > 100 µM each time.
Consider `NC1CCCCC1N.O=S(=O)([O-])CCCN1CCN(CCO)CC1.O=S(=O)([O-])CCCN1CCN(CCO)CC1.[Pt+4]`, for which the GI50 was 8.44 µM with DLD-1 colon; 1240 nM in the test with DMS 273 small cell lung; 21.6 µM in the test with HOP-18 NSCLC; 6.59 µM in the test with KM20L2 colon; 129 nM with P388 leukemia; 2560 nM in the test with P388/ADR leukemia. The figures for the GI50 in the test on SN12K1 renal, in the test on SNB-78 CNS and with XF 498 CNS were 3.29 µM, 15.8 µM and 1250 nM, respectively. The TGI is > 100 µM in the test on DLD-1 colon; 19.9 µM in the test on DMS 273 small cell lung; > 100 µM in the test with HOP-18 NSCLC; > 100 µM with KM20L2 colon; > 32 µM in the test on P388 leukemia; > 47.7 µM in the test on P388/ADR leukemia. Further, the TGI with SN12K1 renal is > 100 µM; in the test on SNB-78 CNS it was > 86.4 µM; in the test with XF 498 CNS, 24.6 µM.
With `CN(CCN(C)C(=O)CCn1ccc(=O)[nH]c1=O)C(=O)CCn1ccc(=O)[nH]c1=O`, the TGI in the test with DMS 114 small cell lung, with DMS 273 small cell lung, with KM20L2 colon, in the test on LXFL 529 NSCLC, with SNB-78 CNS and in the test on XF 498 CNS was > 100 µM throughout.
Turning to `CC(=O)Nc1ccc(/C=C(\NC(=O)c2ccccc2)C(=O)NNS(=O)(=O)c2ccc(C)cc2)cc1`, the TGI in the test on DLD-1 colon was > 100 µM; in the test with DMS 273 small cell lung, 34.8 µM; with HOP-18 NSCLC, > 100 µM; in the test on KM20L2 colon, > 100 µM; in the test on LXFL 529 NSCLC, > 100 µM; with SNB-78 CNS, > 100 µM. Also, in the test on XF 498 CNS, the TGI was > 100 µM.
Turning to `CCCCCCc1cn([C@H]2C[C@H](O)[C@@H](CO)O2)c(=O)[nH]c1=O`, the TGI in the test with DLD-1 colon, with DMS 114 small cell lung, in the test with DMS 273 small cell lung, with HOP-18 NSCLC, with KM20L2 colon and with P388 leukemia was > 100 µM in each case. The TGI in the test with P388/ADR leukemia, in the test on SN12K1 renal, with SNB-78 CNS and with XF 498 CNS was > 100 µM each time.
`Nc1ccc(-c2nc3ccccc3s2)cc1`: the TGI with DLD-1 colon is 77.3 µM; in the test on DMS 114 small cell lung, 39.1 µM; with HOP-18 NSCLC, > 100 µM; with KM20L2 colon it was > 100 µM; in the test on LXFL 529 NSCLC it was 33.4 µM; in the test with SNB-78 CNS it was 98.2 µM.
